From ChEMBL document CHEMBL4418911, “Methods to identify modulators” (2012)
One block for each compound: values may come before it. Activity calls are given as the source filed them. The rule behind the calls is not given here.

Key:
[1] = target: T1, Taste receptor type 2 member 16 (Homo sapiens) (UniProt Q9NYV7); assay: (§1) Activation of full-length human TAS2R16 expressed in HEK293T/Galpha16-gustducin 44 cells assessed as effect on calcium flux by measuring deltaF/F0 ratio at 10 mM in presence of (E)-4-(2,2,3-trimethylcyclopent-3-enyl)but-2-enoic acid by Fluo-4 dye based FLIPR assay; assay type: functional, cell-based
T1 sequence (whole entry): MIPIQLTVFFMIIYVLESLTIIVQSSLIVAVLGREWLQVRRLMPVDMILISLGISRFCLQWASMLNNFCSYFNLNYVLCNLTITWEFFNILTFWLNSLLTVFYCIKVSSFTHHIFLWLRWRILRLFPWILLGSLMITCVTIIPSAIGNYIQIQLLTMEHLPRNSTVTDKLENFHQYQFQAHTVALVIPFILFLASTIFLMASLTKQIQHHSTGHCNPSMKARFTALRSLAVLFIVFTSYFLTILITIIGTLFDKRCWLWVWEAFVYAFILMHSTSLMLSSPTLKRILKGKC

[2] = target: T1, Taste receptor type 2 member 16 (Homo sapiens); assay: Activation of full-length human TAS2R16 expressed in HEK293T/Galpha16-gustducin 44 cells assessed as effect on calcium flux by measuring deltaF/F0 ratio at 0.3125 mM in presence of (E)-4-(2,2,3-trimethylcyclopent-3-enyl)but-2-enoic acid by Fluo-4 dye based FLIPR assay; assay type: functional, cell-based
[3] = target: T1, Taste receptor type 2 member 16 (Homo sapiens); assay: Activation of full-length human TAS2R16 expressed in HEK293T/Galpha16-gustducin 44 cells assessed as effect on calcium flux by measuring deltaF/F0 ratio at 5 mM in presence of (E)-4-(2,2,3-trimethylcyclopent-3-enyl)but-2-enoic acid by Fluo-4 dye based FLIPR assay; assay type: functional, cell-based
[4] = target: T1, Taste receptor type 2 member 16 (Homo sapiens); assay: Activation of full-length human TAS2R16 expressed in HEK293T/Galpha16-gustducin 44 cells assessed as effect on calcium flux by measuring deltaF/F0 ratio at 0.0391 mM in presence of (E)-4-(2,2,3-trimethylcyclopent-3-enyl)but-2-enoic acid by Fluo-4 dye based FLIPR assay; assay type: functional, cell-based
[5] = target: T1, Taste receptor type 2 member 16 (Homo sapiens); assay: Activation of full-length human TAS2R16 expressed in HEK293T/Galpha16-gustducin 44 cells assessed as effect on calcium flux by measuring deltaF/F0 ratio at 2.5 mM in presence of (E)-4-(2,2,3-trimethylcyclopent-3-enyl)but-2-enoic acid by Fluo-4 dye based FLIPR assay; assay type: functional, cell-based
[6] = target: T1, Taste receptor type 2 member 16 (Homo sapiens); assay: Activation of full-length human TAS2R16 expressed in HEK293T/Galpha16-gustducin 44 cells assessed as effect on calcium flux by measuring deltaF/F0 ratio in presence of 4-(2,2,3-trimethylcyclo-pentyl)butanamide) by Fluo-4 dye based FLIPR assay; assay type: functional, cell-based
[7] = target: T1, Taste receptor type 2 member 16 (Homo sapiens); assay: Activation of full-length human TAS2R16 expressed in HEK293T/Galpha16-gustducin 44 cells assessed as effect on calcium flux by measuring deltaF/F0 ratio at 0.0781 mM in presence of (E)-4-(2,2,3-trimethylcyclopent-3-enyl)but-2-enoic acid by Fluo-4 dye based FLIPR assay; assay type: functional, cell-based
[8] = target: T1, Taste receptor type 2 member 16 (Homo sapiens); assay: Activation of full-length human TAS2R16 expressed in HEK293T/Galpha16-gustducin 44 cells assessed as effect on calcium flux by measuring deltaF/F0 ratio at 0.1563 mM in presence of (E)-4-(2,2,3-trimethylcyclopent-3-enyl)but-2-enoic acid by Fluo-4 dye based FLIPR assay; assay type: functional, cell-based
[9] = target: T1, Taste receptor type 2 member 16 (Homo sapiens); assay: Activation of full-length human TAS2R16 expressed in HEK293T/Galpha16-gustducin 44 cells assessed as effect on calcium flux by measuring deltaF/F0 ratio at 0.625 mM in presence of (E)-4-(2,2,3-trimethylcyclopent-3-enyl)but-2-enoic acid by Fluo-4 dye based FLIPR assay; assay type: functional, cell-based
[10] = target: T2, Taste receptor type 2 member 1 (Homo sapiens) (UniProt Q9NYW7); assay: Activation of full-length human TAS2R1 expressed in HEK293T/Galpha16-gustducin 44 cells assessed as effect on calcium flux by measuring deltaF/F0 ratio by Fluo-4 dye based FLIPR assay; assay type: functional, cell-based
T2 sequence (whole entry): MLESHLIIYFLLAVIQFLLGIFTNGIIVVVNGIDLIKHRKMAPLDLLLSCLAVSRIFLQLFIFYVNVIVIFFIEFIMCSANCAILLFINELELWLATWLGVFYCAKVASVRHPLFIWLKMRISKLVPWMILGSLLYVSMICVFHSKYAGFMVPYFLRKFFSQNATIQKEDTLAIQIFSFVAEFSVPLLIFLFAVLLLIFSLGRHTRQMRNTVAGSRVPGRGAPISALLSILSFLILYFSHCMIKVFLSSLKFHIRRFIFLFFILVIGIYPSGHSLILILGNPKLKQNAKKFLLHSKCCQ

[11] = target: T3, Taste receptor type 2 member 31 (Homo sapiens) (UniProt P59538); assay: as §1, with “TAS2R44” for “TAS2R16”, “12.5” for “10”, “assay (reference value: 0.051 +/- 0.004)” for “assay”; assay type: functional, cell-based
T3 sequence (whole entry): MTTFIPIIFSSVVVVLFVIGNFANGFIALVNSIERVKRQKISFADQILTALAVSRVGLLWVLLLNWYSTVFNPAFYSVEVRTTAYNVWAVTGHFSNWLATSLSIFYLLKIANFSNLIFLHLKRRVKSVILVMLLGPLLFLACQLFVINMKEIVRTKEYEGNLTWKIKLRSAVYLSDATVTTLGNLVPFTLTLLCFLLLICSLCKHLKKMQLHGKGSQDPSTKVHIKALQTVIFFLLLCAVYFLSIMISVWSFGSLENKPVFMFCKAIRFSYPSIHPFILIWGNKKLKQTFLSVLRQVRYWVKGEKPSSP

[12] = target: T3, Taste receptor type 2 member 31 (Homo sapiens); assay: as §1, with “TAS2R44” for “TAS2R16”, “6.25” for “10”, “assay (reference value: 0.027 +/- 0.029)” for “assay”; assay type: functional, cell-based
[13] = target: T4, Taste receptor type 2 member 31 (Homo sapiens, UniProt P59538); assay: Agonist activity at full-length human TAS2R44 expressed in HEK293T/Galpha16-gustducin 44 cells assessed as effect on calcium flux by measuring deltaF/F0 ratio in presence of (E)-4-(2,2,3-trimethylcyclopent-3-enyl)but-2-enoic acid by Fluo-4 dye based FLIPR assay; assay type: functional, cell-based
T4 sequence (P59538 whole entry): T3 sequence (whole entry)

[14] = target: T5, Taste receptor type 2 member 10 (Homo sapiens) (UniProt Q9NYW0); assay: Activation of full-length human TAS2R10 expressed in HEK293T/Galpha16-gustducin 44 cells assessed as effect on calcium flux by measuring deltaF/F0 ratio by Fluo-4 dye based FLIPR assay; assay type: functional, cell-based
T5 sequence (whole entry): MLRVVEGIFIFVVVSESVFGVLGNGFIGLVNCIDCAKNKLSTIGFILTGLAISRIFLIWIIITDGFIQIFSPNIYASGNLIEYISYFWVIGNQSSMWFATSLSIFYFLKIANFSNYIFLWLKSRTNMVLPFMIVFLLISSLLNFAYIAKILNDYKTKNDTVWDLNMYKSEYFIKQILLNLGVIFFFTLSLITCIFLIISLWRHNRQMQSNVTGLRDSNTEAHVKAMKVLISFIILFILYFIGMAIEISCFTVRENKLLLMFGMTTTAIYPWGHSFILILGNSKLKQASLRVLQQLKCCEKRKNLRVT

[15] = target: T3, Taste receptor type 2 member 31 (Homo sapiens); assay: as §1, with “TAS2R44” for “TAS2R16”, “0.7813” for “10”, “assay (reference value: 0.038 +/- 0.042)” for “assay”; assay type: functional, cell-based
[16] = target: T3, Taste receptor type 2 member 31 (Homo sapiens); assay: (§2) Activation of full-length human TAS2R44 expressed in HEK293T/Galpha16-gustducin 44 cells assessed as effect on calcium flux by measuring deltaF/F0 ratio at 25 mM in presence of (E)-4-(2,2,3-trimethylcyclopent-3-enyl)but-2-enoic acid by Fluo-4 dye based FLIPR assay (reference value: 0.110 +/- 0.019); assay type: functional, cell-based
[17] = target: T6, Taste receptor type 2 member 46 (Homo sapiens) (UniProt P59540); assay: Activation of full-length human TAS2R46 expressed in HEK293T/Galpha16-gustducin 44 cells assessed as effect on calcium flux by measuring deltaF/F0 ratio by Fluo-4 dye based FLIPR assay; assay type: functional, cell-based
T6 sequence (whole entry): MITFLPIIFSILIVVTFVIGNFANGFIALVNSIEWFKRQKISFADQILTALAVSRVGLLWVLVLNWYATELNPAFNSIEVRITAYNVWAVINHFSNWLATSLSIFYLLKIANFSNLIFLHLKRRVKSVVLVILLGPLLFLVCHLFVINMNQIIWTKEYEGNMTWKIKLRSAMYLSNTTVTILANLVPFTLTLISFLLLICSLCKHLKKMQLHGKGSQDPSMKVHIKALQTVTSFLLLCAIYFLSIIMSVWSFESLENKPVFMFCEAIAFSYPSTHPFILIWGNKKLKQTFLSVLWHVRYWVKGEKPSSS

[18] = target: T3, Taste receptor type 2 member 31 (Homo sapiens); assay: Agonist activity at full-length human TAS2R44 expressed in HEK293T/Galpha16-gustducin 44 cells assessed as effect on calcium flux by measuring deltaF/F0 ratio in presence of 4-(2,2,3-trimethylcyclo-pentyl)butanamide) by Fluo-4 dye based FLIPR assay; assay type: functional, cell-based
Homo sapiens [19] = organism: Homo sapiens; assay: Induction of bitter sensitivity in bitter sensitive human panelists tasting solution containing 3 mM compound in presence of 13 ppm (E)-4-(2,2,3-trimethylcyclopent-3-enyl)but-2-enoic acid; assay type: functional, organism-based
[20] = target: T3, Taste receptor type 2 member 31 (Homo sapiens); assay: as §2, with “3.125” for “25”, “0.030” for “0.110”, “0.042)” for “0.019)”; assay type: functional, cell-based
[21] = target: T3, Taste receptor type 2 member 31 (Homo sapiens); assay: as §2, with “0.3906” for “25”, “0.046” for “0.110”, “0.048)” for “0.019)”; assay type: functional, cell-based
Homo sapiens [22] = organism: Homo sapiens; assay: Induction of bitter sensitivity in bitter sensitive human panelists tasting solution containing 3 mM compound in absence of 13 ppm (E)-4-(2,2,3-trimethylcyclopent-3-enyl)but-2-enoic acid; assay type: functional, organism-based
[23] = target: T3, Taste receptor type 2 member 31 (Homo sapiens); assay: Activation of full-length human TAS2R44 expressed in HEK293T/Galpha16-gustducin 44 cells assessed as effect on calcium flux by measuring deltaF/F0 ratio at 50 mM in presence of (E)-4-(2,2,3-trimethylcyclopent-3-enyl)but-2-enoic acid by Fluo-4 dye based FLIPR assay (reference value: 0.192 +/- 0.011); assay type: functional, cell-based
HEK-293T = assay: Effect on calcium flux in HEK293T/Galpha16-gustducin 44 cells assessed as deltaF/F0 ratio at 100 mM in presence of (E)-4-(2,2,3-trimethylcyclopent-3-enyl)but-2-enoic acid, by Fluo-4 dye based FLIPR assay; assay type: functional, Homo sapiens

- Ratio [1]: 2.83
- Ratio [2]: 1.55
- Ratio [3]: 2.65
- Ratio [4]: -0.013
- Ratio [5]: 2.48
- Activity [6]: Active
- Ratio [7]: 0.108
- Ratio [8]: 0.702
- Ratio [9]: 2.14
SMILES: OC[C@H]1O[C@@H](Oc2ccccc2)[C@H](O)[C@@H](O)[C@@H]1O

- Activity [10]: Dose-dependent effect
- Ratio [11]: -0.015
- Ratio [12]: 0
- EC50 [13]: Not Active
- Activity [14]: Dose-dependent effect
- Ratio [15]: 0.01
- Ratio [16]: -0.035
- Activity [17]: Dose-dependent effect
- Activity [18]: Active
- Ratio [20]: 0.005
- Ratio [21]: 0.011
- Ratio [23]: -0.025
SMILES: OC[C@H]1O[C@H](O[C@]2(CCl)O[C@H](CCl)[C@@H](O)[C@@H]2O)[C@H](O)[C@@H](O)[C@H]1Cl [SUCRALOSE]
- Activity (Homo sapiens [19]): inactive
- Activity (Homo sapiens [22]): Active
- Ratio (HEK-293T): -0.175
